The experiment concerns Promyelocytic leukemia cell strain HL-60. Put plainly: HL-60 cell differentiation induction (morphological change, NBT reduction), each compound alone and with coexisting retinoid Am80. The experiment is classed as cell-based. The settings on record: for Ratio of differentiation-induced cells with coexistence of 1×10^-9 Am80: Table 1; for Ratio of differentiation-induced cells with coexistence of 1×10^-10 Am80: Table 2; for Ratio of differentiation-induced cells with coexistence of 3×10^-9 Am80: Table 3; for cell differentiation ability of the compound per se: compound used alone; for effect on the activity of the coexisting Am80 at a high concentration: compound at 1×10^-6 M; for ratios of differentiated cells, Coexisting retinoid (concentration) Am80 (-9): compound fixed at 1×10^-6 M with Am80 (-9); for ratios of differentiated cells, Coexisting retinoid (concentration) Am80 (-9.5): compound fixed at 1×10^-6 M with Am80 (-9.5); for ratios of differentiated cells, Coexisting retinoid (concentration) Am80 (-10): compound fixed at 1×10^-6 M with Am80 (-10); for ratios of differentiated cells, Coexisting retinoid (concentration) None: compound fixed at 1×10^-6 M, alone. How it is done:
Cell differentiation-inducing activity of each compound of the present invention used alone, and effect on cell differentiation-inducing activity of coexisting retinoid were examined. As a comparative or coexisting retinoid, Am80 ([4-[(5,6,7,8-tetrahydro-5,5,8,8-tetramethyl-2-naphthalenyl)carbamoyl]benzoic acid] was used. Promyelocytic leukemia cell strain HL-60 was used, and differentiation into granulocytic cells was determined by observing morphological change and measuring ability to reduce nitroblue tetrazolium (NBT). The ratios of differentiated cells shown in the following tables were calculated from the ability to reduce NBT. (A) Concentration-dependent differentiation-inducing ability of each compound alone and concentration-dependent effect on the differentiation-inducing ability of 1×10^-9 M Am80 were measured. […] Table 1 (B) Concentration-dependent differentiation-inducing ability of each compound alone and concentration-dependent effect on the differentiation inducing ability of 1×10^-10 M Am80 were measured. […] Table 2 (C) Concentration-dependent differentiation-inducing ability of each compound alone and concentration-dependent effect on the differentiation inducing ability of 3×10^-9 M Am80 were measured.

Where [1] appears, read: (A) 1×10^-9 M Am80, enhancement at a concentration which did not give the cell differentiation-inducing ability, result in words.
The mark [2] stands for this setting: compound concentration -7, with 1×10^-9 M Am80.
Setting [3] is: compound concentration -8, with 1×10^-9 M Am80.
Where [4] appears, read: (B) 1×10^-10 M Am80, result in words.
The mark [5] stands for this setting: compound concentration -6, with 1×10^-10 M Am80.
[6] abbreviates: compound concentration -7, with 1×10^-10 M Am80.
Setting [7] is: compound concentration -8, with 1×10^-10 M Am80.
Setting [8] is: compound concentration -6, with 1×10^-9 M Am80.
The mark [9] stands for this setting: compound concentration -6, with 3×10^-9 M Am80.
The mark [10] stands for this setting: compound concentration -7, with 3×10^-9 M Am80.
Where [11] appears, read: compound concentration -8, with 3×10^-9 M Am80.

The structures appear in SMILES notation. Several values for one entry are separate records, joined by “and”; a condition that tells them apart may be missing. Equal values may be shown once.

Take `CC1(C)CCC(C)(C)c2cc(NC(=O)c3ccc(C(=O)O)cc3)ccc21` [Am80, 4-[(5,6,7,8-tetrahydro-5,5,8,8-tetramethyl-2-naphthalenyl)carbamoyl]benzoic acid, reference compound]: the “Ratio of differentiation-induced cells with coexistence of 1×10^-9 Am80” value (test compound concentration None: 1×10^-9 M Am80 alone, control) was 49% and 37% and 48%. The “Ratio of differentiation-induced cells with coexistence of 1×10^-10 Am80” value (test compound concentration None: 1×10^-10 M Am80 alone, control) was 4% and 11%. In addition, the “Ratio of differentiation-induced cells with coexistence of 3×10^-9 Am80” value (test compound concentration None: 3×10^-9 M Am80 alone, control) was 44 and 51. Moreover, under “Table 4, Compound None: Am80 alone at -9”, the “ratios of differentiated cells, Am80 (-9)” value amounted to 80. In addition, under “Table 4, Compound None: Am80 alone at -9.5”, the “ratios of differentiated cells, Am80 (-9.5)” value is on record as 53. Moreover, where the note is “Table 4, Compound None: Am80 alone at -10”, the “ratios of differentiated cells, Am80 (-10)” value worked out at 8.5.
In the case of `C/C(=C\c1ccc(/C=C2\SC(=O)NC2=O)cc1)c1ccc2c(c1)C(C)(C)CCC2(C)C` [TZ91], the “effect on the activity of the coexisting Am80” value under setting [1] is “enhanced the activity of the coexisting Am80”. Besides, the “Ratio of differentiation-induced cells with coexistence of 1×10^-9 Am80” value reads like this: under setting [2], 87%; under setting [3], 62%; (compound concentration -9, with 1×10^-9 M Am80) 58%. In addition, the “cell differentiation ability of the compound per se” value (result in words) is listed as “had cell differentiation ability”.
On to `O=C1NC(=O)/C(=C/c2cccc(C(=O)NCc3ccc(C(F)(F)F)cc3)c2)S1` [TZ105, reference compound], for which the “effect on the activity of the coexisting retinoid Am80” value ((E) comparison N-benzyl derivative, concentrations not given, result in words) is on record as “failed to effect the activity of the coexisting retinoid Am80”. Moreover, for the setting “result in words”, the “cell differentiation ability of the compound per se” value is “completely inactive”.
As to `CC(C)(C)c1cc(C(=O)Nc2ccc(/C=C3\SC(=O)NC3=O)cc2)cc(C(C)(C)C)c1` [TZ151], the “effect on the activity of the coexisting Am80” value under setting [4] is on record as “enhanced the activity of the coexisting Am80”. In addition, the “Ratio of differentiation-induced cells with coexistence of 1×10^-10 Am80” value under setting [5] was found to be 83%, the “Ratio of differentiation-induced cells with coexistence of 1×10^-10 Am80” value under setting [6] came to 43% and the “Ratio of differentiation-induced cells with coexistence of 1×10^-10 Am80” value under setting [7] was 12%. For the same molecule, the “cell differentiation ability of the compound per se” value (result in words) was “had cell differentiation ability”.
Turning to `CN(C(=O)c1cc(C(C)(C)C)cc(C(C)(C)C)c1)c1ccc(/C=C2\SC(=O)NC2=O)cc1` [TZ161], the “effect on the activity of the coexisting Am80 at a high concentration” value under setting [4] is “acted to suppress the activity”. In addition, under setting [4], the “effect on the activity of the coexisting Am80” value is recorded as “enhanced the activity of the coexisting Am80”. The “Ratio of differentiation-induced cells with coexistence of 1×10^-10 Am80” value runs as follows: under setting [5], 3.8%; under setting [6], 25%; under setting [7], 12%. The “cell differentiation ability of the compound per se” value (result in words) was “inactive”.
With `CC1(C)CCC(C)(C)c2cc(C(=O)Nc3ccc(/C=C4\SC(=O)NC4=O)cc3)ccc21` [TZ181], the “effect on the activity of the coexisting Am80” value under setting [1] is given as “enhanced the activity of the coexisting Am80”. The “Ratio of differentiation-induced cells with coexistence of 1×10^-9 Am80” value by setting is: under setting [8], 6%; under setting [2], 58%; under setting [3], 53%. For the same molecule, the “cell differentiation ability of the compound per se” value (result in words) is recorded as “had cell differentiation ability”.
Regarding `CN(C(=O)c1ccc2c(c1)C(C)(C)CCC2(C)C)c1ccc(/C=C2\SC(=O)NC2=O)cc1` [TZ191], the “effect on the activity of the coexisting Am80 at a high concentration” value under setting [4] was “acted to suppress the activity”. Further, the “effect on the activity of the coexisting Am80” value under setting [4] is listed as “enhanced the activity of the coexisting Am80”. Also, the “Ratio of differentiation-induced cells with coexistence of 1×10^-10 Am80” value by setting is: under setting [5], 28%; under setting [6], 75%; under setting [7], 63%. In addition, for the setting “result in words”, the “cell differentiation ability of the compound per se” value was “inactive”.
For the molecule `CN1c2ccccc2N=C(c2ccc(/C=C3\SC(=O)NC3=O)cc2)c2cc3c(cc21)C(C)(C)CCC3(C)C` [TZ201], the “effect on the activity of the coexisting Am80” value under setting [1] was “suppressed the activity of the coexisting Am80”. The “Ratio of differentiation-induced cells with coexistence of 1×10^-9 Am80” value was found to be 5% under setting [8], 53% under setting [2] and 64% under setting [3]. In addition, the “cell differentiation ability of the compound per se” value (result in words) is “inactive”.
In the case of `CC1(C)CCC(C)(C)c2cc(C(=O)c3ccc(/C=C4\SC(=O)NC4=O)cc3)ccc21` [TZ221], the “Ratio of differentiation-induced cells with coexistence of 3×10^-9 Am80” value under setting [9] was 82, the “Ratio of differentiation-induced cells with coexistence of 3×10^-9 Am80” value under setting [10] is listed as 67 and the “Ratio of differentiation-induced cells with coexistence of 3×10^-9 Am80” value under setting [11] stood at 54.
As to `CC1(C)CCC(C)(C)c2cc(C(=O)c3cccc(/C=C4\SC(=O)NC4=O)c3)ccc21` [TZ223], for the setting “Table 4”, the “ratios of differentiated cells, Coexisting retinoid (concentration) Am80 (-9)” value is reported as 62; the “ratios of differentiated cells, Coexisting retinoid (concentration) Am80 (-9.5)” value is 22; the “ratios of differentiated cells, Coexisting retinoid (concentration) Am80 (-10)” value was 5; the “ratios of differentiated cells, Coexisting retinoid (concentration) None” value is 4.4.
The corresponding values for `Cc1cc2c(cc1C(=O)c1cccc(/C=C3\SC(=O)NC3=O)c1)C(C)(C)CCC2(C)C` [TZ227] are 11.7, 5.5, 7 and 5.3.
For the molecule `C=C(c1ccc(/C=C2\SC(=O)NC2=O)cc1)c1ccc2c(c1)C(C)(C)CCC2(C)C` [TZ241], the “Ratio of differentiation-induced cells with coexistence of 3×10^-9 Am80” value is given as 92 under setting [9], 84 under setting [10] and 76 under setting [11].
With `C=C(c1cccc(/C=C2\SC(=O)NC2=O)c1)c1ccc2c(c1)C(C)(C)CCC2(C)C` [TZ243], where the note is “Table 4”, the “ratios of differentiated cells, Coexisting retinoid (concentration) Am80 (-9)” value amounted to 77; the “ratios of differentiated cells, Coexisting retinoid (concentration) Am80 (-9.5)” value worked out at 35; the “ratios of differentiated cells, Coexisting retinoid (concentration) Am80 (-10)” value was found to be 5; the “ratios of differentiated cells, Coexisting retinoid (concentration) None” value came out at 4.2.
On to `C=C(c1ccc(/C=C2\SC(=O)NC2=O)cc1)c1cc2c(cc1C)C(C)(C)CCC2(C)C` [TZ245], for which the “Ratio of differentiation-induced cells with coexistence of 3×10^-9 Am80” value worked out at 88 under setting [9], 89 under setting [10] and 86 under setting [11].
As to `C=C(c1cccc(/C=C2\SC(=O)NC2=O)c1)c1cc2c(cc1C)C(C)(C)CCC2(C)C` [TZ247], under “Table 4”, the “ratios of differentiated cells, Coexisting retinoid (concentration) Am80 (-9)” value was 10; the “ratios of differentiated cells, Coexisting retinoid (concentration) Am80 (-9.5)” value is listed as 5.8; the “ratios of differentiated cells, Coexisting retinoid (concentration) Am80 (-10)” value was found to be 6.4; the “ratios of differentiated cells, Coexisting retinoid (concentration) None” value stood at 7.
With `CC1(C)CCC(C)(C)c2cc(Nc3ccc(/C=C4\SC(=O)NC4=O)cc3)ccc21` [TZ321], the “Ratio of differentiation-induced cells with coexistence of 3×10^-9 Am80” value under setting [9] came to 88, the “Ratio of differentiation-induced cells with coexistence of 3×10^-9 Am80” value under setting [10] is given as 83 and the “Ratio of differentiation-induced cells with coexistence of 3×10^-9 Am80” value under setting [11] is 55.
As to `CN(c1ccc(/C=C2\SC(=O)NC2=O)cc1)c1ccc2c(c1)C(C)(C)CCC2(C)C` [TZ325], the “Ratio of differentiation-induced cells with coexistence of 3×10^-9 Am80” value under setting [9] is reported as 79, the “Ratio of differentiation-induced cells with coexistence of 3×10^-9 Am80” value under setting [10] was 83 and the “Ratio of differentiation-induced cells with coexistence of 3×10^-9 Am80” value under setting [11] came to 72.

Source of the values: patent publication EP1048659A1, “RETINOID RECEPTOR AGONISTS” (Institute of Medicinal Molecular Design, Inc., priority 1997, dated 1999).
